Where a name gives a salt, the structure may show the parent alone.
Assays:
human TLR7 = biological target: T1, human TLR7 (Homo sapiens, UniProt Q9NYK1); test: HEK-Blue hTLR7 reporter cell assay (SEAP, NF-kB/AP-1) for stimulation of human TLR7; format: cell-based; conditions: HEK-Blue hTLR7 cells, 24 h incubation, SEAP readout; read-out: TLR7_EC50
T1 construct: host or cells: HEK293 (HEK-Blue hTLR7)
T1 sequence (Q9NYK1 27-1049): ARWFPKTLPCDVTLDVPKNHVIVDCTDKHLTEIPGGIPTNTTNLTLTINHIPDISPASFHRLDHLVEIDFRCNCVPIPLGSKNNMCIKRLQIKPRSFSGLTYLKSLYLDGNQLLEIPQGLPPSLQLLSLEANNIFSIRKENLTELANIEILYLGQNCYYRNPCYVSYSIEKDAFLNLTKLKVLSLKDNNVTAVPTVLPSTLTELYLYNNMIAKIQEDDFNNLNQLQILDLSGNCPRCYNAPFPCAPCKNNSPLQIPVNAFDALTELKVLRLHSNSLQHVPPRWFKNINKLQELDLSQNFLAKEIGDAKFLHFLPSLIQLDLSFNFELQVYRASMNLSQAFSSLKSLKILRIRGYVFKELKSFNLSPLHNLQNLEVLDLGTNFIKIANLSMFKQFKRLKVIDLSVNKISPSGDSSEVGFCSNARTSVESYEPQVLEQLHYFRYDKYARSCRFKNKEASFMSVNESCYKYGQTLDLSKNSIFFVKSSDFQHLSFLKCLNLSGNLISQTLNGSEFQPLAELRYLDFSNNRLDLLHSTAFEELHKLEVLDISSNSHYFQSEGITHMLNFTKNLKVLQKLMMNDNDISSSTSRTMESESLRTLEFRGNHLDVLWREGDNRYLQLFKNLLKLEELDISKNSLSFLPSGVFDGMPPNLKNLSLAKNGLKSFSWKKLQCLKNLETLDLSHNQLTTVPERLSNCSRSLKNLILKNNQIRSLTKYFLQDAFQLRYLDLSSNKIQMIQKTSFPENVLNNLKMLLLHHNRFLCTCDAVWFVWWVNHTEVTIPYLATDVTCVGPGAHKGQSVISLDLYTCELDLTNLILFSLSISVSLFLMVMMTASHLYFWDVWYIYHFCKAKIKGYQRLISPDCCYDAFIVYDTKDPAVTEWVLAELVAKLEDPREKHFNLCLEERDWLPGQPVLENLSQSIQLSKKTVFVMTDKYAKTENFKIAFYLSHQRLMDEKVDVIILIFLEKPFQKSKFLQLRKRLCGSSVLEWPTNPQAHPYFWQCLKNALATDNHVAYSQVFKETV
Protocol: (§1) The below tests, involving measuring the in vitro activity of some compounds of the disclosure on TLR7 and TLR8, were carried out using the HEK-Blue™ cells as reporter.
The activity described below, with respect to TLR7, TLR8, IFN-α2a, IL-6, IL29 and TNF-α, is given by the half maximal effective concentration (EC50), which corresponds to the concentration required to obtain a 50% of the activation. The lower the EC50, the less the concentration of the compound is required to produce 50% of maximum activation and the higher the potency.
(§2) In Vitro Assay for Studying the Stimulation of Human TLR7 and TLR8:
(§3) HEK-Blue™ hTLR7 Cells (#hkb-htlr7) and HEK-Blue™ hTLR8 Cells (#hkb-htlr8) from InvivoGen were used according to the manufacturer's instructions. These Reporter HEK293 cells were obtained by co-transfection of the hTLR7 or TLR8 gene and an optimized Secreted Embryonic Alkaline Phosphatase (SEAP) reporter gene which is placed under the control of the IFN-β minimal promoter fused to five NF-κB and AP-1-binding sites. Stimulation with a TLR7/8 ligand activates NF-kB and AP-1 which induce the production of SEAP. The cells are seeded in 96-well plate at 3.10E4 cells/well and incubated 18 to 24 h at 37° C., 5% CO2 before adding the compounds to evaluate. The cells are subsequently incubated with 3-fold serial dilutions of each of the compounds (0.01 to 20 μM) for 24 hours at 37° C., 5% CO2. Next, 20 μL of the supernatant is harvested and incubated with 200 μL of QUANTI-Blue™ Solution.

human TLR8 = biological target: T2, human TLR8 (Homo sapiens, UniProt Q9NR97); test: HEK-Blue hTLR8 reporter cell assay (SEAP, NF-kB/AP-1) for stimulation of human TLR8; format: cell-based; conditions: HEK-Blue hTLR8 cells, 24 h incubation, SEAP readout; read-out: TLR8_EC50
T2 construct: host or cells: HEK293 (HEK-Blue hTLR8)
T2 sequence (Q9NR97 27-1041): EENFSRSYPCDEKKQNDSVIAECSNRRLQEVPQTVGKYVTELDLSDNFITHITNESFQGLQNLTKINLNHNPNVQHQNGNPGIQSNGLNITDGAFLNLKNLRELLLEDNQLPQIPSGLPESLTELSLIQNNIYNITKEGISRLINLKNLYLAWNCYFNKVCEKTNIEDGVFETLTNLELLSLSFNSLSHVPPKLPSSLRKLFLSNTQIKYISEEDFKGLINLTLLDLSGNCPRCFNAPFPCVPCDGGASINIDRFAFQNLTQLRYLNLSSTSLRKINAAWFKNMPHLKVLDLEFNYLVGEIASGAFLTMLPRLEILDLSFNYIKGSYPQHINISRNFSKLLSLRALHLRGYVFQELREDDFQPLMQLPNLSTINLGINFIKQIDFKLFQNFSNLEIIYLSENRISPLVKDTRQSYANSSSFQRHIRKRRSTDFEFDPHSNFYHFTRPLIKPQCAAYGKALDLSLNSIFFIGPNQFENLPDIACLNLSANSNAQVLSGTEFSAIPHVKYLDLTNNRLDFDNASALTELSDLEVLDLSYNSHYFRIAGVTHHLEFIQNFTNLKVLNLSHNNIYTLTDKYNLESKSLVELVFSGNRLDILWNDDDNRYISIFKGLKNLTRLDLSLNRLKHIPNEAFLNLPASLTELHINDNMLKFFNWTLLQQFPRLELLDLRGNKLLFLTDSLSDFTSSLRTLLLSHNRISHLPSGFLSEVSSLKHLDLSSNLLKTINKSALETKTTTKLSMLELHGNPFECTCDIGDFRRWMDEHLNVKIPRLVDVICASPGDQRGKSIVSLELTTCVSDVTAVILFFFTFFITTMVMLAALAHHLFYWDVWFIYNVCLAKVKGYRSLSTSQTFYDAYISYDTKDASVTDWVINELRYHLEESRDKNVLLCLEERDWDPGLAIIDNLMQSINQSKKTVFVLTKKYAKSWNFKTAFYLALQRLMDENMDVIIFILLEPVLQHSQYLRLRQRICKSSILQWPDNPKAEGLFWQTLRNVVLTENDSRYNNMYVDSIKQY
Protocol: as §1, §2
as §3, with “The cells are subsequently incubated with 3-fold serial dilutions of each of the compounds (0.01 to 20 μM) for 24 hours at 37° C., 5% CO2.” left out

## CCCCc1nc2c(N)nnc(OC(C)C)c2n1C[C@H]1CCC[C@H](N)C1 (racemic) [Compound 32, 1-(((1S,3S)-3-aminocyclohexyl)methyl)-2-butyl-7-isopropoxy-1H-imidazo[4,5-]pyridazin-4-amine]
Human TLR7
  EC50: 598 nM
Human TLR8
  EC50: 0.709 µM

## CCCCc1nc2c(N)nnc(OC3CC[S+]([O-])C3)c2n1Cc1ccc(OC)cc1 (single isomer, unassigned; isomer a) [Compound 65, 3-((4-amino-2-butyl-1-(4-methoxybenzyl)-1H-imidazo[4,5-d]pyridazin-7-yl)oxy)tetrahydrothiophene 1-oxide isomer A]
Human TLR7
  EC50: 2210 nM
Human TLR8
  EC50: > 20 µM

## CCCCc1nc2c(N)nnc(OC3CC[S+]([O-])C3)c2n1Cc1ccc(OC)cc1 (single isomer, unassigned; isomer b) [Compound 69, 3-((4-amino-2-butyl-1-(4-methoxybenzyl)-1H-imidazo[4,5-d]pyridazin-7-yl)oxy)tetrahydrothiophene 1-oxide isomer B]
Human TLR7
  EC50: 6760 nM
Human TLR8
  EC50: > 20 µM

## CCCCc1nc2c(N)nnc(OCCC)c2n1Cc1ccc(OC)cc1 [Compound 5, 2-butyl-1-(4-methoxybenzyl)-7-propoxy-1H-imidazo[4,5-d]pyridazin-4-amine]
Human TLR7
  EC50: 145 nM
Human TLR8
  EC50: > 20 µM

## CCCCc1nc2c(N)nnc(OC(C)CC)c2n1Cc1ccc(OC)cc1 (stereo not drawn) [Compound 7, 7-(sec-butoxy)-2-butyl-1-(4-methoxybenzyl)-1H-imidazo[4,5-d]pyridazin-4-amine]
Human TLR7
  EC50: 46 nM
Human TLR8
  EC50: 2.1 µM

## CCCCOc1nnc(N)c2nc(CCCC)n(Cc3ccc(OC)cc3)c12 [Compound 8, 7-butoxy-2-butyl-1-(4-methoxybenzyl)-1H-imidazo[4,5-d]pyridazin-4-amine]
Human TLR7
  EC50: 168 nM
Human TLR8
  EC50: > 20 µM

## CCCCc1nc2c(N)nnc(-c3ccn(C)c3)c2n1Cc1ccc(OC)cc1 [Compound 11, 2-butyl-1-(4-methoxybenzyl)-7-(1-methyl-1H-pyrrol-3-yl)-1H-imidazo[4,5d]pyridazin-4-amine]
Human TLR7
  EC50: 192 nM
Human TLR8
  EC50: > 20 µM

## CCCCc1nc2c(N)nnc(/C=C/C(C)C)c2n1Cc1ccc(OC)cc1 [Compound 12, (E)-2-butyl-1-(4-methoxybenzyl)-7-(3-methylbut-1-en-1-yl)-1H-imidazo[4,5-d]pyridazin-4-amine]
Human TLR7
  EC50: 710 nM
Human TLR8
  EC50: > 20 µM

## CCCCc1nc2c(N)nnc(CCC(C)C)c2n1Cc1ccc(OC)cc1 [Compound 13, 2-butyl-7-isopentyl-1-(4-methoxybenzyl)-1H-imidazo[4,5-d]pyridazin-4-amine]
Human TLR7
  EC50: 345 nM
Human TLR8
  EC50: > 20 µM

## CCCCc1nc2c(N)nnc(C3=CCCC3)c2n1Cc1ccc(OC)cc1 [Compound 15, 2-butyl-7-(cyclopent-1-en-1-yl)-1-(4-methoxybenzyl)-1H-imidazo[4,5-d]pyridazin-4-amine hydrochloride]
Human TLR7
  EC50: 649 nM
Human TLR8
  EC50: > 20 µM

## CCCCc1nc2c(N)nnc(C3CCCC3)c2n1Cc1ccc(OC)cc1 [Compound 16, 2-butyl-7-cyclopentyl-1-(4-methoxybenzyl)-1H-imidazo[4,5-d]pyridazin-4-amine]
Human TLR7
  EC50: 323 nM
Human TLR8
  EC50: > 20 µM

## CCCCc1nc2c(N)nnc(OC(C)C)c2n1C[C@H]1CC[C@H](CN)CC1 [Compound 19, 4-(aminomethyl)cyclohexyl)methyl)-2-butyl-7-isopropoxy-1H-imidazo[4,5-d]pyridazin-4-amine dihydrochloride]
Human TLR7
  EC50: 32 nM
Human TLR8
  EC50: > 20 µM

## CCCCc1nc2c(N)nnc(OC(C)C)c2n1CC(C)(C)O [Compound 24, 1-(4-amino-2-butyl-7-isopropoxy-1H-imidazo[4,5-d]pyridazin-1-yl)-2-methylpropan-2-ol]
Human TLR7
  EC50: 234 nM
Human TLR8
  EC50: 2.64 µM

## CCCCc1nc2c(N)nnc(OC(C)C)c2n1C[C@H]1CC[C@H](N)CC1 [Compound 25]
Human TLR7
  EC50: 109 nM
Human TLR8
  EC50: > 20 µM

## CCCCc1nc2c(N)nnc(OC(C)C)c2n1Cc1ccc(CN)cn1 [Compound 26, 1-((5-(aminomethyl)pyridin-2-yl)methyl)-2-butyl-7-isopropoxy-1H-imidazo[4,5-d]pyridazin-4-amine]
Human TLR7
  EC50: 144 nM
Human TLR8
  EC50: > 20 µM

## CCCCc1nc2c(N)nnc(OC(C)C)c2n1Cc1ccc(C#N)cn1 [Compound 27, 6-((4-amino-2-butyl-7-isopropoxy-1H-imidazo[4,5-d]pyridazin-1-yl)methyl)nicotinonitrile]
Human TLR7
  EC50: 2100 nM
Human TLR8
  EC50: > 20 µM

## CCCCc1nc2c(N)nnc(OC(C)C)c2n1Cc1ccc(CNC(C)=O)cc1 [Compound 28, N-(4-((4-amino-2-butyl-7-isopropoxy-1H-imidazo[4,5c]pyridazin-1-yl)methyl)benzyl)acetamide]
Human TLR7
  EC50: 85 nM
Human TLR8
  EC50: > 20 µM

## CCCCc1nc2c(N)nnc(OC(C)C)c2n1Cc1ccc(CNC(=O)c2ccccc2)cc1 [Compound 106, N-(4-((4-amino-2-butyl-7-isopropoxy-1H-imidazo[4,5-d]pyridazin-1-yl)methyl)benzyl)benzamide]
Human TLR7
  EC50: 68 nM

## CCCCc1nc2c(N)nnc(OC(C)C)c2n1CCCCCCNC1CS(=O)(=O)C1 [Compound 154, 2-butyl-3-[6-[(1,1-dioxothietan-3-yl)amino]hexyl]-4-isopropoxy-imidazo[4,5-d]pyridazin-7-amine]
Human TLR7
  EC50: 117 nM
